What all share (assay type): cell-based
Experiment [1] concerns B16F10 (malignant melanoma). The experiment in a line: Antiproliferative activity, CCK-8 cell viability. Particulars: Mus musculus, B16-F10, 72 h, read-out: Inhibition of Cancerous Cells, B16F10; for inhibition at 3.3 µM: compound concentration of 3.3 μM; for inhibition at 10 µM: compound concentration of 10 μM; for inhibition at 30 µM: compound concentration of 30 μM. The gist of the method:
(§1)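 Viability relative to DMSO controls came from CCK-8 absorbance at 450 nm after 72 h exposure at 37°C. Compound concentrations were 3.3, 10 or 30 μM, in DMEM plus 10% FBS. Results are categorised by inhibition level: at least 50%, 30 to under 50%, or under 30%.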

The subject of experiment [2] is MDA-MB-231 (breast cancer). Nature of the experiment: Antiproliferative activity, CCK-8 cell viability. Particulars: Homo sapiens, 72 h, read-out: Inhibition of Cancerous Cells, MDA-MB-231; for inhibition at 3.3 µM: compound concentration of 3.3 μM; for inhibition at 10 µM: compound concentration of 10 μM; for inhibition at 30 µM: compound concentration of 30 μM. The gist of the method:
as §1

Experiment [3] deals with HeLa (cervical cancer). Nature of the experiment: Antiproliferative activity, CCK-8 cell viability. Particulars: Homo sapiens, 72 h, read-out: Inhibition of Cancerous Cells, HELA; for inhibition at 3.3 µM: compound concentration of 3.3 μM; for inhibition at 10 µM: compound concentration of 10 μM; for inhibition at 30 µM: compound concentration of 30 μM.
The subject of experiment [4] is SW480 (colon cancer). The experiment in a line: Antiproliferative activity, CCK-8 cell viability. Particulars: Homo sapiens, 72 h, read-out: Inhibition of Cancerous Cells, SW480; for inhibition at 3.3 µM: compound concentration of 3.3 μM; for inhibition at 10 µM: compound concentration of 10 μM; for inhibition at 30 µM: compound concentration of 30 μM. The gist of the method:
as §1

Experiment [5] concerns HepG2 (liver cancer). The experiment in a line: Antiproliferative activity, CCK-8 cell viability. Particulars: Homo sapiens, 72 h, read-out: Inhibition of Cancerous Cells, HepG2; for inhibition at 3.3 µM: compound concentration of 3.3 μM; for inhibition at 10 µM: compound concentration of 10 μM; for inhibition at 30 µM: compound concentration of 30 μM. The gist of the method:
as §1

Experiment [6] has as its system A431 (epidermoid carcinoma). Nature of the experiment: Antiproliferative activity, CCK-8 cell viability. The note with it: Homo sapiens, A-431, 72 h, read-out: Inhibition of Cancerous Cells, A431; for inhibition at 3.3 µM: compound concentration of 3.3 μM; for inhibition at 10 µM: compound concentration of 10 μM; for inhibition at 30 µM: compound concentration of 30 μM. The gist of the method: as §1

Experiment [7] relates to A549 (lung adenocarcinoma). The experiment in a line: Antiproliferative activity, CCK-8 cell viability. Particulars: Homo sapiens, 72 h, read-out: Inhibition of Cancerous Cells, A549; for inhibition at 3.3 µM: compound concentration of 3.3 μM; for inhibition at 10 µM: compound concentration of 10 μM; for inhibition at 30 µM: compound concentration of 30 μM.
Experiment [8] relates to alpha-smooth muscle actin (α-SMA). Nature of the experiment: Inhibition of TGF-β induced expression of alpha-smooth muscle actin in CFSC cells (western blot). Particulars: compound at 10 μM, TGF-β (10 ng/mL), 24 hours. The gist of the method:
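Read-out is percent decrease in α-SMA western-blot band intensity, β-actin also probed, relative to TGF-β-only cells. CFSC cells were co-treated for 24 h at 37 °C with 10 ng/mL TGF-β and 10 μM compound in serum-free DMEM.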

From patent US20240116845A1, “INDENE COMPOUNDS, PHARMACEUTICAL COMPOSITIONS THEREOF, AND THEIR THERAPEUTIC APPLICATIONS” (NucMito Pharmaceuticals Co., Ltd., priority 2021, published 2024) come the findings set out here.

Structures are written as SMILES.

As for `CC1=C(CC(=O)O)c2cc(F)ccc2/C1=C/c1ccc(Oc2ccc(F)c(F)c2)cc1` [Compound E1, 2-[(1E)-5-Fluoro-2-methyl-1-({4-[3,4-difluorophenoxy]phenyl}methylidene)-1H-inden-3-yl]acetic acid], the inhibition at 3.3 µM in experiment [1] was less than 30%; in experiment [2], not below 50%; in experiment [3] it was 30 to 50%; in experiment [4], not below 50%; in experiment [5] it was not below 50%; in experiment [6], 30 to 50%. Also, the inhibition at 3.3 µM in experiment [7] fell in the range of 30 to 50%. The inhibition at 10 µM in experiment [1] was 30 to 50%; in experiment [2] it was not below 50%; in experiment [3], not below 50%; in experiment [4], not below 50%; in experiment [5] it was not below 50%; in experiment [6] it was not below 50%. Moreover, the inhibition at 10 µM in experiment [7] was not below 50%; in experiment [8] it was not below 80%. In addition, the inhibition at 30 µM in experiment [1], in experiment [2], in experiment [3], in experiment [4], in experiment [5] and in experiment [6] was not below 50% throughout. Besides, the inhibition at 30 µM in experiment [7] is not below 50%.
Consider `CC1=C(CC(=O)O)c2cc(F)cc(F)c2/C1=C/c1ccc(Oc2ccc(F)cc2)cc1` [Compound E4, 2-[(1E)-5,7-Difluoro-2-methyl-1-({4-[4-fluorophenoxy]phenyl}methylidene)-1H-inden-3-yl]acetic acid], for which the inhibition at 3.3 µM in experiment [1] was not below 50%; in experiment [2], not below 50%; in experiment [3] it was 30 to 50%; in experiment [4], less than 30%; in experiment [5], not below 50%; in experiment [6], less than 30%. Moreover, in experiment [7], the inhibition at 3.3 µM is less than 30%. For the same compound, the inhibition at 10 µM in experiment [1], in experiment [2], in experiment [3], in experiment [4], in experiment [5] and in experiment [6] was not below 50% each time. Besides, the values for the inhibition at 10 µM in experiment [7] and in experiment [8] were 30 to 50% and not below 80%, respectively. The inhibition at 30 µM in experiment [1], in experiment [2], in experiment [3], in experiment [4], in experiment [5] and in experiment [6] was not below 50% in each case. Moreover, the inhibition at 30 µM in experiment [7] is not below 50%.
Regarding `CC1=C(CC(=O)O)c2cc(F)cc(F)c2/C1=C/c1cccc(Oc2ccccc2)c1` [Compound E7, 2-[(1E)-5,7-Difluoro-1-(3-(phenoxy)benzylidene)-2-methyl-1H-inden-3-yl]-acetic acid], the inhibition at 3.3 µM in experiment [1] was not below 50%; in experiment [2], not below 50%; in experiment [3], 30 to 50%; in experiment [4] it was less than 30%; in experiment [5], not below 50%; in experiment [6] it was 30 to 50%. The inhibition at 3.3 µM in experiment [7] is less than 30%. In addition, the inhibition at 10 µM in experiment [1], in experiment [2], in experiment [3], in experiment [4], in experiment [5] and in experiment [6] was not below 50% throughout. For the same compound, the results for the inhibition at 10 µM in experiment [7] and in experiment [8] were less than 30% and not below 80%, respectively. Further, the inhibition at 30 µM in experiment [1], in experiment [2], in experiment [3], in experiment [4], in experiment [5] and in experiment [6] was not below 50% each time. In addition, in experiment [7], the inhibition at 30 µM was not below 50%.
